Experimental findings from US20240199616A1, “BICYCLIC COMPOUNDS AS ALLOSTERIC SHP2 INHIBITORS” (Revolution Medicines, Inc., priority 2017, published 2024) are described below.

In this experiment the target is SHP2 (Homo sapiens (Human), UniProt Q06124). Nature of the experiment: SHP2 allosteric inhibition assay (DiFMUP prompt fluorescence). The format is biochemical. The conditions noted are these: 0.2 nM SHP2 incubated with 0.5 μM Activating Peptide 1 or 2, 30-60 min at 25° C., surrogate substrate DiFMUP, kinetic read. The source says:
Without wishing to be bound by theory, SHP is allosterically activated through binding of bis-tyrosyl-phosphorylated peptides to its Src Homology 2 (SH2) domains. The latter activation step leads to the release of the auto-inhibitory interface of SHP2, which in turn renders the SHP2 protein tyrosine phosphatase (PTP) active and available for substrate recognition and reaction catalysis. The catalytic activity of SHP2 was monitored using the surrogate substrate DiFMUP in a prompt fluorescence assay format.
The phosphatase reactions were performed at room temperature in 96-well black polystyrene plate, flat bottom, non-binding surface (Corning, Cat #3650) using a final reaction volume of 100 μL and the following assay buffer conditions: 50 mM HEPES, pH 7.2, 100 mM NaCl, 0.5 mM EDTA, 0.05% P-20, 1 mM DTT.
The inhibition of SHP2 by compounds of the disclosure (concentrations varying from 0.00005-10 μM) was monitored using an assay in which 0.2 nM of SHP2 was incubated with 0.5 μM of Activating Peptide 1 (sequence: H2N-LN(pY)IDLDLV(dPEG8)LST(pY)ASINFQK-amide) or Activating Peptide 2 (sequence: H2N-LN(pY)AQLWHA(dPEG8)LTI(pY)ATIRRF-amide). […]

SMILES strings stand for the structures.

Sequence of SHP2 (Q06124 whole entry): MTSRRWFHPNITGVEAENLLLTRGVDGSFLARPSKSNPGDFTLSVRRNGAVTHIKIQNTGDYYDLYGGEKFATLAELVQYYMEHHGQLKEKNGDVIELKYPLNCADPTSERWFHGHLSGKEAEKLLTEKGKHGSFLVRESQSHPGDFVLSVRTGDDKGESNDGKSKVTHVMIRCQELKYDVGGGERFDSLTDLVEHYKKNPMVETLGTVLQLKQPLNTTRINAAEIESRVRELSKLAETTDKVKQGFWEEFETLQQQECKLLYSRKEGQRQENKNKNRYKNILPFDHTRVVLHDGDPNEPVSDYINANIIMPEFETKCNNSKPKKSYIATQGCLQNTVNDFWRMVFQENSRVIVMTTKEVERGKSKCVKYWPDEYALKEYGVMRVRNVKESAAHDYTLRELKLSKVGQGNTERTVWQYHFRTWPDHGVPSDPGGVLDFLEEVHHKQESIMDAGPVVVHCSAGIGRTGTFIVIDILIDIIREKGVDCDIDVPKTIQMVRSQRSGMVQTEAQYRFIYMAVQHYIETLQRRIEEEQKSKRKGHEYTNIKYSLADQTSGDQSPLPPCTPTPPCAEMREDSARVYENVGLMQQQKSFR

`Cc1nc(N2CCC3(CCC[C@H]3N)CC2)c2cncn2c1-c1cccc(Cl)c1Cl` [Compound 3, (1R)-8-[5-(2,3-dichlorophenyl)-6-methylimidazo[1,5-a]pyrazin-8-yl]-8-azaspiro[4.5]decan-1-amine] registered an IC50 of 34 nM.
